Test results taken from patent US20230233617A1, “METHODS FOR DIFFERENTIATING STEM CELLS INTO DOPAMINERGIC PROGENITOR CELLS” (JZ CELL TECHNOLOGIES AB, priority 2020, published 2023).

What was measured:
[1] = tested on: CYP26; settings: cited from earlier work
[2] = tested on: CYP26A1; experiment: CYP26A1 expression in hPSC cultures; format: cell-based, human; settings: 50-1,000 nM RA, dSMADi
Method: (d) Effect of RA concentration (50, 100, 300, 500 and 1,000 nM RA) on CYP26A1 expression in 1 DDC cultures differentiated in dSMADi-condition. (e) Temporal expression profile of CYP26A1 in cultures differentiated in dSMADi and pulsed with no RA or 300, 500 or 1,000 nM of RA for 2 days. […] (g) Relative gene expression of indicated genes in 9 DDC cultures differentiated in RA^1D+SAG condition and in the presence of different concentrations of the CYP26 inhibitor R115866. […] (c-e) values, mean±S.D.
Total RNA was isolated using Quick-RNA Mini Prep Plus kit (Zymo Research). cDNA was prepared using Maxima First Strand cDNA synthesis kit (Thermo Fisher Scientific). Quantitative Real-Time PCR was performed in a 7500 Fast Real Time PCR system thermal cycler using Fast SYBR Green PCR Master Mix (Applied Biosystems). Analysis of gene expression was performed using the 2-ΔΔCt method, where relative gene expression was normalized to GAPDH transcript levels.

[3] = tested on: hPSC-derived ventral midbrain dopaminergic progenitors; experiment: Specification of caudal midbrain identity (EN1 immunocytochemistry); format: cell-based, human; settings: RA^2D+SAG
Method: (a) (a) Immunocytochemical analysis of ventral MB progenitor identities at 14 DDC. […] Nuclei of cells visualized with DAPI staining. (b) Immunocytochemistry of dopaminergic neuron marker TH and caudal midbrain marker EN1 expression in 40 DDC cultures differentiated in indicated conditions.
Cells were fixed for 12 min at room temperature (RT) in 4% paraformaldehyde in PBS, rinsed 3 times in PBST (PBS with 0.1% Triton-X100), and blocked for 1 hour at RT with blocking solution (3% FCS/0.1% Triton-X100 in PBS). Cells were then incubated with primary antibodies overnight at 4° C., followed by incubation with fluorophore-conjugated secondary antibodies for 1 hour at RT. Both primary and fluorophore-conjugated secondary antibodies were diluted in blocking solution. Primary antibodies used are listed in Supplementary Table 1. Appropriate Alexa (488, 555, 647)-conjugated secondary antibodies (Molecular Probes) were used.
Mechanisms underlying specification of midbrain dopamine neuron subtypes remains poorly resolved, but is likely to involve sub-patterning of ventral midbrain dopaminergic progenitors along the mediolateral and rostro-caudal axes of the midbrain (Brignani, S, and Pasterkamp, R. J., Front. Neuroanat. 11, 1-18 (2017)). WNT1 signaling emanating from the isthmic organizer at the midbrain-hindbrain boundary establish polarity of midbrain progenitors along the rostro-caudal axis by inducing a caudal^HIGH-to-rostral^LOW expression gradient of the homeodomain proteins EN1 and EN2 (Wurst, W. and Bally-Cuif, L. Nat. Rev. Neuroscience 2, 99-108 (2001)).

[4] = tested on: hPSC-derived NSCs; experiment: Ventral regional identity of hPSC-derived NSCs at 9 DDC in dSMADi+SAG conditions (NKX2.1, LMX1A, PHOX2B, NKX2.2); format: cell-based, human; settings: 9 DDC
[5] = tested on: hESCs; experiment: Conversion of hPSCs into NSCs (OCT4, SOX1, PAX6 expression) in dSMADi cultures; format: cell-based, human
Method: To explore the activities of RA on hESCs directed to adopt a neural fate in response to dSMADi^14, we treated cultures with 200 nM all-trans RA for the first 1, 2, 3 or 4 days of differentiation (RA^1D, RA^2D, RA^3D, RA^4D) (FIG. 1a) and monitored fate and identity of cells at different stages by immunoblotting, quantitative immunocytochemistry, qPCR or RNA-sequencing (RNA-seq). […] Induction of SOX1 and PAX6 at low levels occurred at 3 DDC (FIG. 1b). OCT4 and SOX1 were co-expressed by cells between 3-4 DDC (FIG. 1b, c; FIG. 7a (Supplementary FIG. 1a)) showing that the conversion of hPSCs into NSCs in response to dSMADi-treatment encompass a protracted time-window over which expression of pluripotency- and neural-specific genes overlap. […] By 7 DDC, SOX1 and neural marker NESTIN were expressed at similar levels in dSMADi-only and in dSMADi+RA^2D cultures (FIG. 1d). […] Endodermal or mesodermal lineage markers were not expressed (FIG. 7b (Supplementary FIG. 1b)). In dSMADi+RA^2D conditions, prompt suppression of OCT4 and fast upregulation of SOX1 was attained within a concentration range of RA between 50-500 nM (FIG. 1g). […] Thus, combining dSMADi treatment with exposure of hPSCs to RA for 48 hours or longer promotes a rapid and switch-like transition from pluripotency into a NSC-state.
80-90% confluent PSCs cultures were rinsed twice with PBS, treated with EDTA (0.5 mM in PBS) for 5-7 min, and resuspended into single cell suspension in PBS. Cells were spin down at 400 g and resuspended in N2B27 medium (DMEM/F12: Neurobasal (1:1), 0.5×N2 and 0.5×B27 (plus vitamin A) supplements, 1×nonessential amino acids, 1% GlutaMAX, 55 μM β-mercaptoethanol-all from Thermo Fisher Scientific) containing 5 μM SB431542 (Miltenyi Biotech) and 2.5 μM DMH1 (Santa Cruz Biotech) (dual SMAD inhibition), and 10 μM ROCK inhibitor (for the first 48 hours after seeding). Cells were seeded on VTN (2 μg/cm^2) and Fibronectin (FN) (2 μg/cm^2) (Sigma) coated surface at a density of 60,000-80,000 cells/cm^2 for RA- and RA-analogues based experiments, and 20,000 cells/cm^2 for CHIR99021 experiments. […]

## CC1=C(/C=C/C(C)=C/C=C/C(C)=C/C(=O)O)C(C)(C)CCC1 [RA, all-trans retinoic acid]
[1]
  susceptibility to CYP26-mediated oxidation: substrates for CYP26-mediated oxidation
[2]
  CYP26A1 expression: concentration-dependent activation and adaptive temporal expression of CYP26A1
[3]; 14DDC
  identity of ventral midbrain progenitors (EN1): LMX1A^+/OTX2^+/EN1^− identity
[3]; 40DDC
  EN1 expression in TH+ dopamine neurons: a small proportion of TH^+ dopamine neurons expressed EN1
[4]; RA^1D+SAG
  ventral identity of NSCs: expressed the FB-specific markers FOXG1, SIX3, SIX6, and LHX2
[4]; RA^2D+SAG, 100 nM or 800 nM RA
  identity of NSCs: LMX1A^+/NKX2.1^− NSCs were generated but at lower numbers
[4]; RA^2D+SAG
  RA concentration at which the vast majority of NSCs expressed LMX1A+/NKX2.1− vMB-identity: 200 to 400 nM
  ventral identity of NSCs: LMX1A^+/LMX1B^+/FOXA2^+/OTX2^+ identity characteristic of vMB mDA neuron progenitors
[4]; RA^3D+SAG or RA^4D+SAG
  ventral identity of NSCs: expressed HOX genes and the ventral markers NKX2.2, PHOX2B, NKX6.1, and NKX6.2 typical of cranial motor neuron (MN) progenitors of the HB
[4]; dSMADi+SAG
  time at which the 48 hour RA-pulse must be initiated for effective induction of vMB NSC identity: 0-2 DDC
[5]; 200 nM RA for one day (dSMADi+RA^1D)
  rapid OCT4 suppression and fast upregulation of SOX1: not sufficient to promote rapid OCT4 suppression nor fast upregulation of SOX1
[5]; dSMADi and 200 nM RA for two days or longer
  OCT4 expression: expression of OCT4 had essentially been extinguished by 3 DDC
[5]; dSMADi+RA^2D, 3 DDC
  concentration range of RA giving prompt suppression of OCT4 and fast upregulation of SOX1: 50 to 500 nM
